Results published in patent US20050037097A1, “PYRUVATE ENRICHED ONION EXTRACT” (priority 2003, published 2005).

Key:
[1] = Inhibition (%) of ABTS radical generation; type: biochemical; settings: concentration was 0.005 mg/mL (footnote)
Procedure: All reagents used in this assay were prepared in phosphate buffered saline (PBS, 10 mM, pH 7.4). Sample solutions were prepared in PBS.
[…] Reaction was triggered by the addition of 120 μL of 10 mM hydrogen peroxide. Absorbance data of the reaction mixture were recorded after 10 min using a spectrophotometer set at 734 nm. Quercetin was used as a reference antioxidant.

[2] = Total reducing power (pre-formed ABTS radical); type: biochemical; settings: concentration was 0.005 mg/mL (footnote)
Procedure: ABTS radical was generated by mixing 5 mL of an aqueous ABTS solution (7 mM) and 88 μL of a potassium persulfate solution (140 mM), followed by the standing in the dark for 6 h. This stock solution (1.1 mL) was diluted to 90 mL with PBS (pH 7.4) and the absorbance adjusted to 0.83. […] Absorbance at 734 nm was measured after 10 min. Quercetin was used as a reference antioxidant. Total reducing power (TRP, %) was calculated using the following equations: […]+PBS(%)=[(Abs0 min-Abs10 min)/Abs0 min]*100 TRPSample=([…]

[3] = Oxygen radical absorbance capacity (ORAC), β-carotene retention; type: biochemical; settings: concentration was 0.005 mg/mL (footnote); PBS control 28
Procedure: A solution of 2,2′-azobis-(2-amidinopropane) dihydrochloride (AAPH, 0.5 M) was prepared in degassed distilled water and a β-carotene solution was prepared by centrifuging 10 mg of β-carotene in 10 mL of acetone followed by a one-fold dilution of the supernatant with the same solvent. β-carotene (60 μL) and 0.6% (w/v) phosphate buffered Tween 20 containing 0.3% (w/v) of linoleic acid (120 μL) were mixed with 935 μL of PBS in a quartz cuvette and incubated for 2 min at 50° C. 10 μL of sample solution (final assay concentration of 454 μg/mL) and AAPH (25 μL) were added into the cuvette and the reaction was monitored for 10 min using a spectrophotometer set at 452 nm. Quercetin was used as a reference antioxidant. Cuvette was maintained at 50° C. all times except when the measurement is being taken. Percentage β-carotene retention was calculated using the following equation: % β-carotene retention=100−[(Abs0 min−Abs5 min)*100 Abs0 min]

[4] = Stability determination of pyruvate (pyruvate loss with or without hydrogen peroxide); type: physicochemical

pyruvate loss ([4]; with added hydrogen peroxide)	pyruvate loss ([4]; without added hydrogen peroxide)	SMILES	% inhibition of ABTS radical generation [1]	% TRP (total reducing power) [2]	% TRP (ORAC in terms of β-Carotene retention) [3]
–	–	O=c1c(O)c(-c2ccc(O)c(O)c2)oc2cc(O)cc(O)c12 [Quercetin]	23%	30%	55%
11%	26%	CC(=O)C(=O)O [pyruvic acid]	–	–	–
